Experimental data: patent US11844853B2, “Antiperspirant composition” (Conopco, Inc., priority 2018, dated 2023)

Assay: Percentage flow rate reduction (PFRR) of artificial sweat across a membrane coated with antiperspirant active
Details: metal deposited 0.004 g/membrane; 12 micron pore size, 50 mm dia.; flow of artificial sweat under 60 cm constant water bar pressure (5.9 kPa)
Method: The above solutions were deposited on a membrane as give below such that the metal deposited was 0.004 g/membrane.
Whatman cellulose nitrate membranes (AE 100, 12 micron nominal pore size, 50 mm dia.) were coated with required volume of desired % w/v or w/w solution of ACH in water. The coated membranes were taken out and kept in air for 30 mins. Then the membranes were put into a closed chamber having 250 ml 10% (v/v) ammoniacal solution inside to generate an ammoniacal blanketing at 25-30° C. temperature, for 4 hrs to neutralize the active. Then the neutralized membranes were kept in air for 6 hrs to remove excess moisture and were used for flow rate assessment. The membranes were fitted in the Millipore filtration set up and flow rate of artificial sweat under 60 cm constant water bar pressure was measured. The selected water bar pressure corresponds to 5.9 kPa, which is reported as the average secretory pressure of the sweat glands (avg.SPSG)
Whatman cellulose nitrate membranes (AE 100, 12 micron nominal pore size, 50 mm dia.) were coated with required volume of desired % w/v or w/w solution of zinc complex in ethanol. The coated membranes were taken out and kept in air for 15 mins. […]
The percentage flow rate reduction was calculated using the equation:

Substance	Avg % PFRR N = 8 [%]
Aluminium chlorohydrate [Example A]	66
Zinc lysine complex [Example C, Zinc lysine complex [Zn (lysine)2. Cl2.2H2O]]	10
